Some test systems named below: MDA-N; DMS 114 small cell lung; DMS 273 small cell lung; HOP-18 NSCLC; KM20L2 colon; LXFL 529 NSCLC; M19-MEL melanoma; SNB-78 CNS; RXF-631 renal.
Holding throughout (assay): inhibition of tumour cell growth, NCI panel, 48 h

Values joined by “and” are separate entries in the source; they are usually repeats but may differ in a detail not shown here. Identical values can stand only once.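 How tested: cells in 96-well plates exposed to compound for 48 hours at five concentrations. At the GI50, growth is halved. TGI: concentration producing complete growth inhibition.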

With `COc1ccc(C2c3c(-c4ccccc4)nn(-c4ccccc4)c3Oc3ncn4nc(CC#N)nc4c32)cc1OC` (stereo not given), in the experiment with MDA-N, the GI50 is > 100 µM and 16.2 µM; the TGI was over 100 µM.
On to `Cc1ccc2c(c1)C=CC(C#N)N2C(=O)Oc1ccccc1` (stereo not given), for which the TGI in the experiment with MDA-N was over 100 µM.
Regarding `CCOC(=O)NC1CC2CCC1(OC)C=C2C` (stereo not given), the TGI with DMS 114 small cell lung, in the experiment with DMS 273 small cell lung, in the experiment with HOP-18 NSCLC, with KM20L2 colon, with LXFL 529 NSCLC and in the experiment on M19-MEL melanoma was over 100 µM in each case. Besides, in the experiment on SNB-78 CNS, the TGI was over 100 µM.
Turning to `CCCN1C(=O)CNC(=O)c2[nH]cnc21`, the TGI with DMS 114 small cell lung, in the experiment with HOP-18 NSCLC, in the experiment on KM20L2 colon, with LXFL 529 NSCLC, in the experiment with M19-MEL melanoma and in the experiment on SNB-78 CNS was over 100 µM throughout.
For `O=C(O)[C@@H](NS(=O)(=O)c1ccc([N+](=O)[O-])cc1)c1ccccc1`, the TGI with DMS 273 small cell lung, with HOP-18 NSCLC, with KM20L2 colon, in the experiment on LXFL 529 NSCLC, in the experiment with M19-MEL melanoma and in the experiment on RXF-631 renal was over 100 µM in each case.
With `C=C[C@H]1C=Cc2c(OC)cccc2[C@@H]1COP1(=S)NC(C)C(c2ccccc2)O1` (stereo not given in full), the TGI in the experiment with DMS 114 small cell lung, in the experiment on DMS 273 small cell lung, with HOP-18 NSCLC, in the experiment on KM20L2 colon, with LXFL 529 NSCLC and in the experiment on M19-MEL melanoma was over 100 µM throughout. For the same compound, in the experiment on SNB-78 CNS, the TGI was over 100 µM.
Take `O=C(C=Nc1ccccc1C(=O)[O-])c1cccs1.O=C(C=Nc1ccccc1C(=O)[O-])c1cccs1.[Zn+2]`: the TGI in the experiment with DMS 273 small cell lung, in the experiment with HOP-18 NSCLC and in the experiment on KM20L2 colon was over 100 µM in each case.
Regarding `O=C(O)CCSC(=S)Nc1ccc([N+](=O)[O-])cc1`, the TGI was over 100 µM in the experiment with DMS 114 small cell lung; over 100 µM with DMS 273 small cell lung; over 100 µM in the experiment on KM20L2 colon; over 100 µM with LXFL 529 NSCLC; 58.4 µM in the experiment with MDA-N; over 100 µM in the experiment on SNB-78 CNS.
`CC(C)c1cccc(C(C)C)c1NC(=O)CCC(=O)NN`: the TGI in the experiment with DMS 114 small cell lung, with DMS 273 small cell lung, in the experiment with HOP-18 NSCLC, in the experiment on KM20L2 colon, with LXFL 529 NSCLC and with M19-MEL melanoma was over 100 µM in each case. The TGI in the experiment with SNB-78 CNS is over 100 µM.
Take `Nc1nc(=Nc2ccccc2)ss1`: the TGI in the experiment with DMS 114 small cell lung, with DMS 273 small cell lung, in the experiment on HOP-18 NSCLC, in the experiment with KM20L2 colon, in the experiment with LXFL 529 NSCLC and in the experiment on M19-MEL melanoma was over 100 µM throughout. Besides, the TGI in the experiment on RXF-631 renal and in the experiment on SNB-78 CNS was over 100 µM each time.
In turn, `Cc1cc(N(CCOS(C)(=O)=O)CCOS(C)(=O)=O)ccc1C=Nc1ccc(-c2csc(-c3ccc(Br)cc3)n2)cc1` came in with a TGI in the experiment with MDA-N of 56.6 µM.
Take `FC(F)(F)c1cccc(C2SCc3nc4ccccc4n32)c1` (stereo not given): the TGI in the experiment on DMS 114 small cell lung, with DMS 273 small cell lung, in the experiment on LXFL 529 NSCLC, in the experiment on M19-MEL melanoma and in the experiment with SNB-78 CNS was over 100 µM each time.
Take `C=C(CN(C)C)C(=O)c1ccc(Oc2ccccc2)cc1`: the TGI was found to be 46.8 µM in the experiment with DMS 273 small cell lung; 13.3 µM with HOP-18 NSCLC; 27.5 µM in the experiment on KM20L2 colon; 5.04 µM with LXFL 529 NSCLC; 14.8 µM with M19-MEL melanoma; 9.38 µM with MDA-N. Moreover, the TGI with RXF-631 renal was determined as 35.9 µM; in the experiment with SNB-78 CNS, 41.9 µM.
On to `O=C(Cc1ccccc1)NS(=O)(=O)c1ccccc1`, for which the TGI in the experiment with DMS 114 small cell lung, in the experiment on DMS 273 small cell lung, with HOP-18 NSCLC, with KM20L2 colon, in the experiment on LXFL 529 NSCLC and in the experiment on RXF-631 renal was over 100 µM in each case. In addition, the TGI in the experiment with SNB-78 CNS is over 100 µM.
With `CCOC(=O)c1cc(OC(=O)CC)c2c(OC)ccc(OC)c2c1`, the TGI in the experiment with DMS 114 small cell lung, in the experiment with DMS 273 small cell lung, with HOP-18 NSCLC, with LXFL 529 NSCLC and with M19-MEL melanoma was over 100 µM each time.
With `COc1ccccc1NC(=O)C(CC(C(=O)Nc1ccccc1OC)/C(C)=N/NC(=O)c1ccccc1O)/C(C)=N/NC(=O)c1ccccc1O` (stereo not given), the TGI in the experiment with DMS 114 small cell lung, in the experiment with DMS 273 small cell lung, in the experiment on KM20L2 colon, with LXFL 529 NSCLC, in the experiment with M19-MEL melanoma and in the experiment on RXF-631 renal was over 100 µM throughout. Besides, the TGI with SNB-78 CNS is over 100 µM.
In the case of `FC(F)(F)c1nc(-c2ccccc2)oc1Sc1oc(-c2ccccc2)nc1C(F)(F)F`, the TGI in the experiment on DMS 114 small cell lung, in the experiment on DMS 273 small cell lung, in the experiment on HOP-18 NSCLC, in the experiment with KM20L2 colon, in the experiment with LXFL 529 NSCLC and with M19-MEL melanoma was over 100 µM each time. Moreover, the TGI in the experiment on SNB-78 CNS is over 100 µM.
Take `Cc1ccc(N2C(=O)C(Cl)=C(Cl)C2=O)cc1`: the TGI in the experiment with DMS 114 small cell lung is 36.5 µM; in the experiment on DMS 273 small cell lung, over 100 µM; in the experiment on HOP-18 NSCLC, 36.3 µM; in the experiment on KM20L2 colon, 53.6 µM; with LXFL 529 NSCLC it was 38.5 µM; in the experiment with M19-MEL melanoma it was 41.9 µM. The TGI is 42.2 µM in the experiment on RXF-631 renal and 54.9 µM in the experiment with SNB-78 CNS.
As to `Cn1nc2ccccc2cc1=O`, the TGI in the experiment on DMS 114 small cell lung, with DMS 273 small cell lung, in the experiment on HOP-18 NSCLC, in the experiment with KM20L2 colon, in the experiment with M19-MEL melanoma and with RXF-631 renal was over 100 µM throughout. For the same compound, in the experiment on SNB-78 CNS, the TGI was over 100 µM.
`C[CH2][Sn]([CH2]C)([O]C(=O)c1ccc(F)cc1)[O][Sn]([CH2]C)([CH2]C)[O]C(=O)c1ccc(F)cc1`: the GI50 in the experiment on DMS 273 small cell lung was over 100 µM; with HOP-18 NSCLC, over 100 µM; in the experiment on KM20L2 colon it was over 100 µM; with LXFL 529 NSCLC it was 13 µM; in the experiment on M19-MEL melanoma it was 45.9 µM; in the experiment with SNB-78 CNS, 21.1 µM. In addition, the TGI with DMS 273 small cell lung was over 100 µM; in the experiment with HOP-18 NSCLC it was over 100 µM; in the experiment with KM20L2 colon, over 100 µM; in the experiment on LXFL 529 NSCLC, 25.8 µM; in the experiment on M19-MEL melanoma, over 100 µM; in the experiment with SNB-78 CNS it was 50.4 µM.

These data come from PubChem BioAssay (NCI).
